From patent publication US10973744B2, “Conditioner composition comprising a chelant” (The Procter & Gamble Company, priority 2016, dated 2021)

Assay: Measurement of copper on hair after shampoo / rinse-off conditioner / leave-on treatment regimen (ICP-OES)
Conditions: after 20 regimen cycles, compared to control conditioning shampoo/control rinse-off conditioner
Procedure: All testing are performed on colored hair switches (see Method of Measurement of copper on hair below) weighing approximately 4.0 grams and having a length of approximately 6 inches. The hair switches are commercially available from IHIP (International Hair Importers). Three hair switches per shampoo composition are used. An amount of […] of shampoo is spread via a syringe onto separate hair switch. That is, the dosage is 0.10 g of shampoo per g of hair. Each application consists of adding shampoo to the hair, milking for 30 seconds followed by rinsing for 30 seconds. Shampoo is then reapplied (0.1 g/g), milked for 30 seconds and rinsed for 30 seconds. Excess water is squeezed from the hair switches and left to air dry or treated with a rinse-off conditioner and/or a leave-on treatment composition. […]
In several cases during this inventigation, the rinse-off conditioner treatment is followed by hair treatment with a leave-on treatment composition. Specifically, the appropriate quantity of the leave-on treatment composition is uniformely sprayed or spread onto separate hair switches (dosage of 0.10 g of solution per g of hair). […]
Samples of 100 mg of hair were digested overnight with 2 ml of high purity concentrated nitric acid. […] Copper content of the hair switches was determined by inductively coupled plasma atomic spectroscopy (ICP-OES)). For each leg, 3 different samples were analyzed. […]

NCCNCCNCCN [2,3-Triethylenetetramine]
Removal of copper from hair (in words): effective removal of copper from hair
